ChEMBL document CHEMBL4842375, “Discovery of a Potent Glutathione Peroxidase 4 Inhibitor as a Selective Ferroptosis Inducer” (J Med Chem, 2021)
pIC50: −log10 of the molar value. Activity calls are given as the source filed them. No cut-off for these calls is given here.

Assays:
[1] = molecular target: T1, Phospholipid hydroperoxide glutathione peroxidase GPX4 (Homo sapiens) (UniProt P36969); assay: Inhibition of GPX4 in mouse 4T1 cells assessed as decrease in intracellular GPX4 activity at 5 uM after 6 hrs; assay type: cell-based
T1 sequence (whole entry): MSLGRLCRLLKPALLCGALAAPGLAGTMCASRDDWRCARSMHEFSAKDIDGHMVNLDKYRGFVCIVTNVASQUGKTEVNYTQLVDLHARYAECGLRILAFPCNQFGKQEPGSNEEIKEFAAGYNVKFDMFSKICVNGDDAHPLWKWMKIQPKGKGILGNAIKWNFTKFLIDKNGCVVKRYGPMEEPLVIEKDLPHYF

4T1 [2] = assay: Induction of ferroptosis in mouse 4T1 cells assessed as reversal of cytotoxicity after 48 hrs in presence of glutathione by MTT assay; assay type: functional, cell-based
4T1 [3] = assay: Induction of LPO accumulation in mouse 4T1 cells at 2.5 uM incubated for 6 hrs by C11-BODIPY staining based flow cytometric analysis; assay type: functional, cell-based
4T1 [4] = assay: Induction of ferroptosis in mouse 4T1 cells assessed as ruptured mitochondria at 5 uM incubated for 6 hrs by TEM analysis; assay type: functional
4T1 [5] = assay: Induction of ferroptosis in mouse 4T1 cells assessed as increase in mitochondrial membrane density at 5 uM incubated for 6 hrs by TEM analysis; assay type: functional, cell-based
4T1 [6] = assay: Induction of LPO accumulation in mouse 4T1 cells at 2.5 uM incubated for 6 hrs in presence of Fer-1 by C11-BODIPY staining based confocal laser scanning microscopic analysis; assay type: functional, cell-based
HT-1080 [7] = assay: Cytotoxicity against human HT-1080 cells assessed as reduction in cell viability incubated for 48 hrs in presence of Fer-1 by MTT assay; assay type: functional, cell-based; details: HT-1080, 48 h
4T1 [8] = assay: Cytotoxicity against mouse 4T1 cells assessed as reduction in cell viability incubated for 48 hrs by MTT assay; assay type: functional, cell-based; details: 4T1, 48 h
4T1 [9] = assay: Effect on intracellular GSH level in mouse 4T1 cells assessed as reduction in GSH level; assay type: functional, cell-based
4T1 [10] = assay: Induction of intracellular ROS generation in mouse 4T1 cells at 2.5 uM incubated for 6 hrs by DCFH-DA staining based confocal laser scanning microscopic analysis; assay type: functional, cell-based
[11] = Toxicity in BALB/C mouse xenografted with mouse 4T1 cells assessed as change in body weight at 15 to 30 mg/kg, iv administered every two days for total 5 times and monitered every two days; assay type: organism-based; details: in vivo, dose 15-30 mg/kg
4T1 [12] = assay: Induction of intracellular ROS generation in mouse 4T1 cells at 2.5 uM incubated for 6 hrs by DCFH-DA staining based flow cytometric analysis; assay type: functional, cell-based
4T1 [13] = assay: Antitumor activity against mouse 4T1 cells xenografted in BALB/c mouse assessed as tumor growth inhibition at 15 mg/kg, iv administered every two days for total 5 times and monitered every two days by electronic caliper method; assay type: functional; details: 4T1, iv, 48 h, read-out: TGI
[14] = Selectivity index, ratio of IC50 for cytotoxicity against human HT-1080 cells in presence of Fer-1 to IC50 for cytotoxicity against human HT-1080 cells; assay type: functional
[15] = Stability of compound in glutathione after 12 hrs by HPLC analysis; assay type: physicochemical
4T1 [16] = assay: Induction of intracellular ROS generation in mouse 4T1 cells at 2.5 uM incubated for 6 hrs in presence of Fer-1 by DCFH-DA staining based confocal laser scanning microscopic analysis; assay type: functional, cell-based
4T1 [17] = assay: Induction of intracellular ROS generation in mouse 4T1 cells at 2.5 uM incubated for 6 hrs in presence of Fer-1 by DCFH-DA staining based flow cytometric analysis; assay type: functional, cell-based
[18] = Toxicity in BALB/C mouse xenografted with mouse 4T1 cells assessed as change in morphology of tissues and cells at 15 to 30 mg/kg, iv administered every two days for total 5 times and monitered every two days; assay type: organism-based; details: in vivo, dose 15-30 mg/kg
MCF7 = assay: Cytotoxicity against human MCF7 cells assessed as reduction in cell viability incubated for 48 hrs by MTT assay; assay type: functional, cell-based; details: MCF7, 48 h
4T1 [19] = assay: Induction of LPO accumulation in mouse 4T1 cells assessed as increase in MDA level at 2.5 uM incubated for 6 hrs; assay type: functional, cell-based
4T1 [20] = assay: Induction of ferroptosis in mouse 4T1 cells assessed as reduction in mitochondrial cristae at 5 uM incubated for 6 hrs by TEM analysis; assay type: functional, cell-based
4T1 [21] = assay: Antitumor activity against mouse 4T1 cells xenografted in BALB/c mouse assessed as tumor growth inhibition at 30 mg/kg, iv administered every two days for total 5 times and monitered every two days by electronic caliper method; assay type: functional; details: 4T1, iv, 48 h, read-out: TGI
[22] = Toxicity in BALB/C mouse xenografted with mouse 4T1 cells assessed as change in biochemical indexes at 15 to 30 mg/kg, iv administered every two days for total 5 times and monitered every two days; assay type: organism-based; details: in vivo, dose 15-30 mg/kg
4T1 [23] = assay: Induction of LPO accumulation in mouse 4T1 cells at 2.5 uM incubated for 6 hrs by C11-BODIPY staining based confocal laser scanning microscopic analysis; assay type: functional, cell-based
4T1 [24] = assay: Induction of LPO accumulation in mouse 4T1 cells at 2.5 uM incubated for 6 hrs in presence of Fer-1 by C11-BODIPY staining based flow cytometric analysis; assay type: functional, cell-based
4T1 [25] = assay: Induction of ferroptosis in mouse 4T1 cells assessed as reversal of cytotoxicity after 48 hrs in presence of NAC by MTT assay; assay type: functional, cell-based
4T1 [26] = assay: Antitumor activity against mouse 4T1 cells xenografted in iv dosed BALB/c mouse assessed as tumor growth inhibition administered every two days for total 5 times and monitered every two days by electronic caliper method; assay type: functional, organism-based; details: dose 15-30 mg/kg
HT-1080 [27] = assay: Cytotoxicity against human HT-1080 cells assessed as reduction in cell viability incubated for 48 hrs by MTT assay; assay type: functional, cell-based; details: HT-1080, 48 h
4T1 [28] = assay: Induction of ferroptosis in mouse 4T1 cells assessed as reduction in GSH levels at 5 uM; assay type: functional, cell-based

**Q.** What does the source list for `O=C(NCCc1ccccc1)C(c1csc2ccccc12)N(C(=O)CCl)c1ccc(-c2cnco2)cc1` (centres undefined)?
**A.** inhibition [1]: 11.8%; Activity (4T1 [2]): Active; Activity (4T1 [3]): Active; Activity (4T1 [4]): Active; Activity (4T1 [5]): Active; Activity (4T1 [6]): inactive; pIC50 (HT-1080 [7]): 5.33; pIC50 (4T1 [8]): 6.11; Activity (4T1 [9]): inactive; Activity (4T1 [10]): Active; Activity [11]: Non-Toxic; Activity (4T1 [12]): Active; inhibition in vivo at 15 mg/kg (4T1 [13]): 33.2%; Ratio IC50 [14]: 31.5; Stabilty [15]: Stable; Activity (4T1 [16]): inactive; Activity (4T1 [17]): inactive; Activity [18]: Non-Toxic; pIC50 (MCF7): 5.16; Activity (4T1 [19]): Active; Activity (4T1 [20]): Active; inhibition in vivo at 30 mg/kg (4T1 [21]): 55.1%; Activity [22]: Non-Toxic; Activity (4T1 [23]): Active; Activity (4T1 [24]): inactive; Activity (4T1 [25]): Active; Activity (4T1 [26]): Dose-Dependent Effect; pIC50 (HT-1080 [27]): 6.82; Activity (4T1 [28]): Active
